Test system: retinas
Assay: protection of retinas from acute light-induced toxicity
Format: in vivo
Details: no data or method given

Vitamin E
protection of retinas from acute light-induced toxicity: effective in protecting retinas from acute light-induced toxicity
